According to BindingDB's records for doi:10.1021/jm0706867 (St. Jude Research Hospital, 2007):

Biological target: CES2 (Homo sapiens, UniProt O00748)
Test: Enzyme Inhibition Assay
Details: pH 7.4; 25 °C
Description: CE inhibition was determined using a spectrophotometric multiwell plate assay with o-NPA as a substrate. The rate of change in absorbance at 420 nm was measured at 15 sec intervals for 5 min and compared to wells containing no inhibitor. […] Further analysis of inhibitors was performed in condition that inhibitor concentrations ranged from 1 pM to 100 uM. Data were fitted to the equation. Examination of curve fits to identify the best model for enzyme inhibition. Ki values were then calculated from the equation predicted by Prism to be the best fit for the experimental data.

Chain of CES2 (O00748 whole entry, looked up): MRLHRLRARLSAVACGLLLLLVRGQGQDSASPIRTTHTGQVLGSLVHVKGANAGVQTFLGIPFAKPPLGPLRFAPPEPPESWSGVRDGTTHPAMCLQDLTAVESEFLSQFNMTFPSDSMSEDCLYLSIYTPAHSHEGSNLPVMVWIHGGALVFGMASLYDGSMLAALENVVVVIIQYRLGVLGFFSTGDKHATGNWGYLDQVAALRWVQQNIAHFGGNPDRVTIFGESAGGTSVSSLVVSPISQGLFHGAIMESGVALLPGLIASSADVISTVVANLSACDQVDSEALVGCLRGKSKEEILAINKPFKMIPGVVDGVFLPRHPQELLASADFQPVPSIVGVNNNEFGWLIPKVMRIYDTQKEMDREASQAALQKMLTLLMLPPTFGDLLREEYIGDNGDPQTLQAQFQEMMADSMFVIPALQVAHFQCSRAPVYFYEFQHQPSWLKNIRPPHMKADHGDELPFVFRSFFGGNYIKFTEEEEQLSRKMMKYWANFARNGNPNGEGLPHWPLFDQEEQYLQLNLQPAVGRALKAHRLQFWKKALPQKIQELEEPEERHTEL

| Ki | SMILES |
| --- | --- |
| > 100 µM | COc1ccccc1C(=O)C(=O)c1ccccc1OC [1,2-bis(2-methoxyphenyl)ethane-1,2-dione] |
| > 100 µM | O=C1C(=O)c2cccnc2-c2ncccc21 [5,6-dihydro-1=10-phenantroline-5,6-dione] |
| > 100 µM | O=C1C(=O)c2cccc3c2N(CCC3)C1=O [1-azatricyclo[7.3.1.0^{5,13}]trideca-5,7,9(13)-triene-2,3,4-trione] |
